Laboratory results as given in patent US20250051319A1 (AUGUSTINE THERAPEUTICS, priority 2021, published 2025).

Legend:
[1] = target: human full-length recombinant HDAC1 (Homo sapiens (Human), UniProt Q13547); assay: HDAC1 enzymatic activity assay (alternative protocol, Ac-Gly-Ala-Lys(Ac)-AMC); format: biochemical; settings: 4 nM enzyme, read-out: HDAC1 biochem
Experimental: (§1) Inhibition of HDAC enzymes was performed in 384-well plate format using human full-length recombinant HDAC1 and HDAC6, isolated from a baculovirus expression system in Sf9 cells (BPS Bioscience). Reaction buffer for HDAC1 contained 50 mM Tris HCl pH 8.0, 137 mM NaCl, 2.7 mM KCl, 1 mM MgCl2, 0.1 mg/mL BSA, and reaction buffer for HDAC6 contained 50 mM Tris/HCl, pH 8.0, 137 mM NaCl, 2.7 mM KCl, 250 μM EDTA, 1 mM DTT, 0.1 mg/mL BSA. Compounds (dissolved in 100% DMSO) or DMSO (vehicle) were diluted in assay buffer at 3× final assay concentration and then added to assay plates. SAHA ([…]) was used as a positive control. 3× final assay concentration of recombinant enzymes (final assay concentration is 4 nM and 5 nM for HDAC1 and HDAC6, respectively) were preincubated for 10 minutes with test compounds at room temperature. Afterwards, 3× final assay concentration of an acetylated fluorogenic peptide (Ac-Gly-Ala-Lys(Ac))-AMC, Bachem; final assay concentration is 12 µM and 40 µM for HDAC1 and HDAC6, respectively) was added to assay plate, allowing deacetylase reactions to incubate for 60 minutes at room temperature. The developer reagent containing 5 μM SAHA and 50 μM trypsin was added to stop the deacetylase reaction and generate AMNC-fluorescence. 15 minutes after addition of developer reagent, endpoint measurements were taken using CLARIOstar (BMG Labtech) plate reader (excitation/emission: 360/450). Fluorescence signals were normalized for each plate using GraphPad Prism software: reaction HDAC-substrate in presence of DMSO was set to 100% while reaction HDAC-substrate in presence of 10 μM SAHA was set to 0%.

[2] = target: catalytic domain 2 (CD2) of HDAC6 (Homo sapiens (Human), UniProt Q9UBN7); assay: Cellular target engagement assay - NanoBRET; format: cell-based; settings: NanoLuc-HDAC6(CD2) in HEK293T cells, 2 hours, read-out: IC50 (HDAC6(CD2) interaction)
[3] = target: human full-length recombinant HDAC6 (Homo sapiens (Human), UniProt Q9UBN7); assay: HDAC6 enzymatic activity assay (alternative protocol, Ac-Gly-Ala-Lys(Ac)-AMC); format: biochemical; settings: 5 nM enzyme, read-out: HDAC6 biochem
Experimental: as §1

Chain of catalytic domain 2 (CD2) of HDAC6 (Q9UBN7 482-800): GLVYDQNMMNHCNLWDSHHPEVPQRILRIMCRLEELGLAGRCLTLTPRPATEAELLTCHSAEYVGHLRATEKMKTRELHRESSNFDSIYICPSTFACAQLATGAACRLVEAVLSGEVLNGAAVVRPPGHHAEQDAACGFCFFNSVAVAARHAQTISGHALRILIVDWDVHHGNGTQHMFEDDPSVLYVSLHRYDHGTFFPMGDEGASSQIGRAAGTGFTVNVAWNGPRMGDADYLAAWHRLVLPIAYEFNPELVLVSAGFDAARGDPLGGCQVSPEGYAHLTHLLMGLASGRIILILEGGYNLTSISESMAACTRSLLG
Chain of human full-length recombinant HDAC1 (Q13547 whole entry): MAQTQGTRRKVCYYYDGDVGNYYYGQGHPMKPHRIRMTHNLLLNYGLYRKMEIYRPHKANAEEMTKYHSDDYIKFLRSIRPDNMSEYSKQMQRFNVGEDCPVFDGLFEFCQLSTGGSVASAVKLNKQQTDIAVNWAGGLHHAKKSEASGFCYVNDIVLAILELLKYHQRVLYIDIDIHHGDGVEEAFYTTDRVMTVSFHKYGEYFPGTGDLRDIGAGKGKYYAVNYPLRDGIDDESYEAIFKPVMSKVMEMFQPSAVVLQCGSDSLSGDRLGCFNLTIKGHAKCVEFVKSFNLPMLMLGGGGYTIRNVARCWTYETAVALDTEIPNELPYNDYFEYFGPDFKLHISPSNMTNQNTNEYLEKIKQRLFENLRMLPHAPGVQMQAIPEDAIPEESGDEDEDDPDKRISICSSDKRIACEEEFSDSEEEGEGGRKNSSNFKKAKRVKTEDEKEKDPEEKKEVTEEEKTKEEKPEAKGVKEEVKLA
Chain of human full-length recombinant HDAC6 (Q9UBN7 whole entry): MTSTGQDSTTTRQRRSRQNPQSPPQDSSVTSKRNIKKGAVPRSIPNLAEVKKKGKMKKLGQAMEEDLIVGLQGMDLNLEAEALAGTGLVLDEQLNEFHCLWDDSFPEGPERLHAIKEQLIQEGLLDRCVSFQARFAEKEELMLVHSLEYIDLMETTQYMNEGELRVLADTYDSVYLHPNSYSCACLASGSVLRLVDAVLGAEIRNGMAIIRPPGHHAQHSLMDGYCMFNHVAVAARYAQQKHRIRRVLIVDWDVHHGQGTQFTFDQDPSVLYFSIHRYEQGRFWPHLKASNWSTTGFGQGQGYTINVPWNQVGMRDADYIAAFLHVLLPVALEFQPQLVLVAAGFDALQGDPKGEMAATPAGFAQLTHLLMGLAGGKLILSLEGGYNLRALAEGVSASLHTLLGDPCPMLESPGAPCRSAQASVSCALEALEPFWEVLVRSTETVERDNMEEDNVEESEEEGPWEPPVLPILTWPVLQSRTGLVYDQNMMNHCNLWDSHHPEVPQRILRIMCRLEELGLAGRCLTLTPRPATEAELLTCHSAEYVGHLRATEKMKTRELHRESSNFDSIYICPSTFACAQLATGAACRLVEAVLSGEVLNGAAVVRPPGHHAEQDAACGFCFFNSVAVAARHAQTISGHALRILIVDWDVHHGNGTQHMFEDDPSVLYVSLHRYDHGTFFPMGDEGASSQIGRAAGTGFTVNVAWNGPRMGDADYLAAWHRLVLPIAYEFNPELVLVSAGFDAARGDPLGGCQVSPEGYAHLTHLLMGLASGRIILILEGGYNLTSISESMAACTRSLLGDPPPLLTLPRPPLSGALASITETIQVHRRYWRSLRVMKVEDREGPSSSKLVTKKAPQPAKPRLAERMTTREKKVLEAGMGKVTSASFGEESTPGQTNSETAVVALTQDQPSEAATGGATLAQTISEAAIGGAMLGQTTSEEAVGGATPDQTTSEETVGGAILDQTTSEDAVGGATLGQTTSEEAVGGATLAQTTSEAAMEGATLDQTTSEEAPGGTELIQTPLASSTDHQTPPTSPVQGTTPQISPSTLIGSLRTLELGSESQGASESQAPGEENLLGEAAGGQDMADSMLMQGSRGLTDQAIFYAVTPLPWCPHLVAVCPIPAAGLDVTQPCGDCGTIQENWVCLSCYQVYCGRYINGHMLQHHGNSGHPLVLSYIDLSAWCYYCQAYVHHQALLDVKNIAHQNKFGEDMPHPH

Row | IC50 [1] | IC50 [2] | IC50 [3] | Compound
1 | > 10 µM | 0.5 to 1 µM | ≤ 0.1 µM | Cn1ncc2c(SCC(=O)c3ccc(CNC(=O)Cc4ccccn4)s3)ncnc21 [Compound 55, N-((5-(2-((1-methyl-1H-pyrazolo[3,4-d]pyrimidin-4-yl)thio)acetyl)thiophen-2-yl)methyl)-2-(160yrrolid-2-yl)acetamide]
2 | > 10 µM | 0.1 to 0.5 µM | ≤ 0.1 µM | O=C(CSc1nc(C(F)(F)F)nc2ccccc12)c1ccc(CCN2CCCC2=O)s1 [Example 26, 1-(2-(5-(2-((2-(trifluoromethyl)quinazolin-4-yl)thio)acetyl)thiophen-2-yl)ethyl)pyrrolidin-2-one]
3 | > 10 µM | 0.1 to 0.5 µM | ≤ 0.1 µM | CN(Cc1ccc(C(=O)CSc2ncnc3c2cnn3C)s1)S(=O)(=O)C1CC1 [Compound 91, N-methyl-N-((5-(2-((1-methyl-1H-pyrazolo[3,4-d]pyrimidin-4-yl)thio)acetyl)thiophen-2-yl)methyl)cyclopropanesulfonamide]
4 | > 10 µM | 1 to 10 µM | ≤ 0.1 µM | COCC(=O)NCc1ccc(C(=O)CSc2ncnc3c2cnn3C)s1 [Compound 58, 2-methoxy-N-((5-(2-((1-methyl-1H-pyrazolo[3,4-d]pyrimidin-4-yl)thio)acetyl)thiophen-2-yl)methyl)acetamide]
5 | 1 to 10 µM | 0.1 to 0.5 µM | ≤ 0.1 µM | Cc1ccc2oc(SCC(=O)c3ccc(CNC(=O)C(C)(C)C)s3)nc2n1 [Example 23, N-((5-(2-((5-methyloxazolo[4,5-b]pyridine-2-yl)thio)acetyl)thiophen-2-yl)methyl)pivalamide]
6 | > 10 µM | 0.1 to 0.5 µM | ≤ 0.1 µM | Cn1ncc2c(SCC(=O)c3ccc(CNC(=O)C(C)(C)C)s3)nc(C3CC3)nc21 [Example 6, N-((5-(2-((6-cyclopropyl-1-methyl-1H-pyrazolo[3,4-d]pyrimidin-4-yl)thio)acetyl)thiophen-2-yl)methyl)pivalamide]
7 | > 10 µM | 0.1 to 0.5 µM | ≤ 0.1 µM | Cc1nnc(SCC(=O)c2ccc(CNC(=O)C(C)(C)C)s2)c2ccccc12 [Example 194, N-((5-(2-((4-methylphthalazin-1-yl)thio)acetyl)thiophen-2-yl)methyl)pivalamide]
8 | 1 to 10 µM | ≤ 0.1 µM | ≤ 0.1 µM | Cc1nc(SCC(=O)c2ccc(CNC(=O)C(C)(C)C)s2)c2cccnc2n1 [Example 7, N-((5-(2-((2-methylpyrido[2,3-d]pyrimidin-4-yl)thio)acetyl)thiophen-2-yl)methyl)pivalamide]
9 | > 10 µM | ≤ 0.1 µM | ≤ 0.1 µM | O=C(CSc1nc(C(F)(F)F)nc2ccccc12)c1ccc(CCNC(=O)C2CC2)s1 [Example 36, N-(2-(5-(2-((2-(trifluoromethyl)quinazolin-4-yl)thio)acetyl)thiophen-2-yl)ethyl)cyclopropanecarboxamide]
10 | > 10 µM | 0.1 to 0.5 µM | ≤ 0.1 µM | Cc1nc(SCC(=O)c2ccc(CNC(=O)C(C)(C)C)s2)c2ccc(F)cc2n1 [Example 10, N-((5-(2-((7-fluoro-2-methylquinazolin-4-yl)thio)acetyl)thiophen-2-yl)methyl)pivalamide]
11 | > 10 µM | 0.1 to 0.5 µM | ≤ 0.1 µM | Cn1ncc2c(SCC(=O)c3ccc(CNC(=O)CO)s3)ncnc21 [Compound 59, 2-hydroxy-N-((5-(2-((1-methyl-1H-pyrazolo[3,4-d]pyrimidin-4-yl)thio)acetyl)thiophen-2-yl)methyl)acetamide]
12 | > 10 µM | 0.1 to 0.5 µM | ≤ 0.1 µM | COc1ccc2c(SCC(=O)c3ccc(CNC(=O)C(C)(C)C)s3)nc(C)nc2c1 [Example 12, N-((5-(2-((7-methoxy-2-methylquinazolin-4-yl)thio)acetyl)thiophen-2-yl)methyl)pivalamide]
13 | > 10 µM | 0.5 to 1 µM | ≤ 0.1 µM | COCc1nc(SCC(=O)c2ccc(CNC(=O)C(C)(C)C)s2)c2ccccc2n1 [Example 4, N-((5-(2-((2-(methoxymethyl)quinazolin-4-yl)thio)acetyl)thiophen-2-yl)methyl)pivalamide]
14 | > 10 µM | 1 to 10 µM | ≤ 0.1 µM | Cn1ncc2c(SCC(=O)c3ccc(CNS(=O)(=O)Cc4ccccc4)s3)ncnc21 [Compound 90, N-((5-(2-((1-methyl-1H-pyrazolo[3,4-d]pyrimidin-4-yl)thio)acetyl)thiophen-2-yl)methyl)-1-phenylmethanesulfonamide]
15 | > 10 µM | 0.1 to 0.5 µM | ≤ 0.1 µM | Cc1nc(SCC(=O)c2ccc(CNC(=O)C(C)(C)C)s2)c2ccc(Cl)cc2n1 [Example 8, N-((5-(2-((7-chloro-2-methylquinazolin-4-yl)thio)acetyl)thiophen-2-yl)methyl)pivalamide]
16 | > 10 µM | ≤ 0.1 µM | ≤ 0.1 µM | Cn1ncc2c(SCC(=O)c3ccc(CNC(=O)Cc4cccnc4)s3)ncnc21 [Compound 56, N-((5-(2-((1-methyl-1H-pyrazolo[3,4-d]pyrimidin-4-yl)thio)acetyl)thiophen-2-yl)methyl)-2-(160yrrolid-3-yl)acetamide]
17 | > 10 µM | ≤ 0.1 µM | ≤ 0.1 µM | CC(C)(C)C(=O)NCc1ccc(C(=O)CSc2nc(C(F)(F)F)nc3ccccc23)s1 [Example 38, N-((5-(2-((2-(trifluoromethyl)quinazolin-4-yl)thio)acetyl)thiophen-2-yl)methyl)pivalamide]
18 | > 10 µM | 0.1 to 0.5 µM | ≤ 0.1 µM | CN(Cc1ccc(C(=O)CSc2ncnc3c2cnn3C)s1)C(=O)C(C)(C)C [Example 33, N-methyl-N-((5-(2-((1-methyl-1H-pyrazolo[3,4-d]pyrimidin-4-yl)thio)acetyl)thiophen-2-yl)methyl)pivalamide]
19 | 1 to 10 µM | 0.1 to 0.5 µM | ≤ 0.1 µM | CN(Cc1ccc(C(=O)CSc2ncnc3c2cnn3C)s1)S(=O)(=O)Cc1ccncc1 [Compound 92, N-methyl-N-((5-(2-((1-methyl-1H-pyrazolo[3,4-d]pyrimidin-4-yl)thio)acetyl)thiophen-2-yl)methyl)-1-(162yrrolid-4-yl)methanesulfonamide]
20 | 1 to 10 µM | 0.1 to 0.5 µM | ≤ 0.1 µM | Cc1nc(SCC(=O)c2ccc(CNS(C)(=O)=O)s2)c2ccccc2n1 [Compound 97, N-((5-(2-((2-methylquinazolin-4-yl)thio)acetyl)thiophen-2-yl)methyl)methanesulfonamide]
21 | > 10 µM | 0.1 to 0.5 µM | ≤ 0.1 µM | CC1CCN(Cc2ccc(C(=O)CSc3ncnc4c3cnn4C)s2)C1=O (stereo not drawn) [Example 24, 3-methyl-1-((5-(2-((1-methyl-1H-pyrazolo[3,4-d]pyrimidin-4-yl)thio)acetyl)thiophen-2-yl)methyl)pyrrolidin-2-one]
22 | > 10 µM | 0.1 to 0.5 µM | ≤ 0.1 µM | Cc1nc(SCC(=O)c2ccc(CNC(=O)C(C)(C)C)s2)c2cccc(F)c2n1 [Example 15, N-((5-(2-((8-fluoro-2-methylquinazolin-4-yl)thio)acetyl)thiophen-2-yl)methyl)pivalamide]
23 | > 10 µM | 0.1 to 0.5 µM | ≤ 0.1 µM | Cn1ncc2c(SCC(=O)c3ccc(CNC(=O)C(C)(C)C)s3)nc(C(F)(F)F)nc21 [Example 20, N-((5-(2-((1-methyl-6-(trifluoromethyl)-1H-pyrazolo[3,4-d]pyrimidin-4-yl)thio)acetyl)thiophen-2-yl)methyl)pivalamide]
